Experimental data reported in patent US20090209605A1, “NEMATICIDAL COMPOSITIONS” (Devgen N.V., priority 2004, published 2009).

How the values were obtained:
Format in all cases: in vivo
Meloidogyne nematodes = assay: Pot Assay 2: Meloidogyne infection of tomato, % infestation of roots; conditions: RATE 0.05 mg; tomato in infested soil
Description: The soil used in this assay originated from a plot, heavily infested with Meloidogyne nematodes. Part of this soil was sterilized by autoclaving and was used as negative control. Sandy soil, which was not infested with nematodes, was pursued from a commercial source.
Plastic seedling trays with wells of 60 ml capacity were filled with about 40 ml of soil per well. 5 ml of water per well was used for irrigation.
Compounds as described herein were tested in 4 different rates and with 12 replicates for each concentration. The compounds as described herein were stored as dry films of 4 different concentrations. The day of the application of the compounds, all the dry films were dissolved in 60 ml water and poured into the 12 replicate wells: 5 ml per well. Every tray of 12 wells was identified with a label, indicating compound and concentration used. The 4 final rates in the soil of the tested compound were approximately 0.05 mg, 0.20 mg, 1 mg and 5 mg. These amounts translate to field application rates respectively as 30, 120, 600 and 3000 g per hectare.
3-5 days after application of the tested compound, tomato seeds (cv. Rio Grande) were sown in the wells by hand, at about 2 cm deep. A light cover of vermiculite on the surface was used to avoid dehydration. Plants were irrigated by micro-nebulization 3-4 times per week at a rate of 3 L/m^2, weeded by hand and treated with fertilizers, fungicide and insecticides when needed.
Their resistance against nematode infection was monitored and the efficacy of compounds described herein as a nematicide was measured. Furthermore the phytotoxicity of the test compounds was evaluated.
Efficacy of the compounds described herein as nematicide was measured by giving the roots a percentage of infestation measured as follows. Plants were grown to reach good development of the roots, which corresponds to plants grown to about 10 cm high at about one month after emergence. After removal of the soil from the roots by rinsing with water, the roots were visually inspected and root galls were counted on 4 plants of the set of 12 replicate plants.
Positive control plants were treated with a 10 micromolar concentration of oxamyl (Vydate, 10% SL; the rate of 10 micromolar corresponds to a commercial rate of 20 l/ha), a known nematicide. Negative controls involved double negative controls (no compound, sterile soil), and single negative controls (no compound, with nematode infested soil).

tomato (cv. Rio Grande) = assay: Pot Assay 2: root development (vigor of roots) of tomato; conditions: RATE 0.05 mg; visual value 0 to 10 (10 equal to control)
Description: Phytotoxicity of compounds as described herein when used as a nematicide, was measured as follows. […] At that moment, plant emergence was assessed for the plants treated with any of the compounds as described herein, by counting the number of plants per compound-concentration.
Vigor of roots was also assessed once the plants are well established so as not to loose plants. To assess vigor of the plants or roots, a visual value ranging from 0 to 10 (0 no vigor, 10 equal to control) was scored per compound-concentration.

Heterodera nematode = assay: Pot Assay 3: Heterodera infection of sugar beet, crop vigor and crop height; conditions: infested soil
Text: The soil used in this assay originated from a Heterodera nematode infested sugar plot of which the infestation was confirmed by means of several soil analyses. Each pot was filled up with a soil mixture composed as follows: a) the infested soil was constituted by silt loam soil (about 600 g/pot) mixed with sterile peat (about 600 g/pot) and sterile cork (about 200 g/pot); b) the sterile soil was instead constituted only by sterile peat (1200 g/pot) and sterile cork (200 g/pot).
Each compound or compound mixture as described herein was tested in 4 different rates with 4 replicates per rate. One pot per replicate was used in which 18 beava sugar beet seeds (variety GEA (KWS)) were sown. After crop germination, the number of plants was reduced to 10 plants. The 4 rates added to the soil of the tested compounds or compound mixtures were 0.05 mg, 0.20 mg, 1 mg and 5 mg. These amounts translate to field application rates respectively as 30, 120, 600 and 3000 g per hectare.
Efficacy of the compounds described herein as nematicide was measured by visual inspection of the crop vigor and the crop height. The crop vigor evaluation is based on a 0-100 scale, where 0 is “no vigor” and 100 is “maximum vigor”. The crop height development is based on a measurement, in cm, per plant, excluding the root system.
Positive control plants were treated with Oxamyl (Vydate 5 G, 5% gr) at a rate of 40 kg fp per ha. Negative controls involved single negative controls (no compound, with nematode infested soil; referenced as “Untreated 1”) and double negative controls (no compound, sterile soil; referenced as “Untreated 2”).

[1] = test system: root-knot nematode (Meloidogyne spp); assay: Nematicide field trial on cucumber: root galling and yield; conditions: Product Rate 1500 g ai/ha
Description: Open ground grown cucumber (Cucumis sativus cv Carine) were grown on sandy soil with a natural root-knot nematode (Meloidogyne spp) population. Soil samples, collected prior to planting, contained on average 8 J2 juveniles per 100 g soil. A program of 4 applications with intervals of about 14 days was started six days after transplantation.
An experimental pattern at Complete Randomized Blocks with four replicas was adopted. Besides the experimental products, each test also included an untreated control and a treatment with the standard commercial product VYDATE 10L (10%) applied in accordance to label instructions.
[…] The level of nematode attack of the root system at the time of harvesting was assessed by means of the lamberti scoring.

CCCCc1c(C)nc(NCC)nc1OS(=O)(=O)N(C)C [XLIII]
% INF. (% Infestation) (Meloidogyne nematodes): 1.3%
ROOT DEV. (tomato (cv. Rio Grande)): 7.8
crop height (cm) (Heterodera nematode; Rate 1 mg): 14 cm
crop vigor (max 100%) (Heterodera nematode; Rate 1 mg): 80%
crop height (cm) (Heterodera nematode; Rate 5 mg): 15 cm
crop vigor (max 100%) (Heterodera nematode; Rate 5 mg): 100%
Average yield of marketable fruits [1]: 8.7 kg/plant/pot
Average root galling ([1]; 0-5 Lamberti scale): 1.5
